What was measured:
[1] = Inclusion ability of different concentrations and kinds of cyclodextrins for encapsulating API
Experimental: Different kinds of cyclodextrins were dissolved with a pH 1.2 aqueous hydrochloric acid solution (0.1N) to determine the saturation concentration of each cyclodextrin.
(1) A certain amount of α-, β- and γ-cyclodextrin were weighed and added into a 10 mL volumetric flask, then added aqueous hydrochloric acid solution of pH 1.2 gradually until reaching the scale of the flask, shocked and performed ultrasound to dissolve the cyclodextrin. The maximum amount of cyclodextrin capable of being dissolved in a 10 mL solution was recorded.
(2) 8% α-cyclodextrin solution, 1% β-cyclodextrin solution, 20% γ-cyclodextrin solution, 20%, 30%, and 40% sulfobutyl ether-β-cyclodextrin solution and 20%, 30%, and 40% hydroxypropyl-β-cyclodextrin solution were formulated with hydrochloric acid aqueous solution of pH 1.2.
A certain amount of API was weighed and added into an appropriate volume of the cyclodextrin solution. If API was completely dissolved, the solution was filtered with a 0.45 μm PTFE filter membrane, and pH was slowly adjusted to 4.0 with a 5N NaOH aqueous solution and a 0.1N NaOH aqueous solution, observing during the pH adjusting procedure. If the solution becomes turbid when adjusting the pH, try to reduce the concentration of API. The clear solution after the pH adjustment was left to stand to observe the state of the solution after standing for 2 hours, 4 hours, and 24 hours.

[2] = Formulation of drug-containing HP-β-CD solutions (concentration by HPLC, observation on standing); details: 21 mg/ml added to 30% HP-β-CD solution pH 1.2, not completely dissolved, 0.45 μm PES filter

For `OC[C@H]1O[C@@H]2O[C@H]3[C@H](O)[C@@H](O)[C@@H](O[C@H]4[C@H](O)[C@@H](O)[C@@H](O[C@H]5[C@H](O)[C@@H](O)[C@@H](O[C@H]6[C@H](O)[C@@H](O)[C@@H](O[C@H]7[C@H](O)[C@@H](O)[C@@H](O[C@H]8[C@H](O)[C@@H](O)[C@@H](O[C@H]9[C@H](O)[C@@H](O)[C@@H](O[C@H]1[C@H](O)[C@H]2O)O[C@@H]9CO)O[C@@H]8CO)O[C@@H]7CO)O[C@@H]6CO)O[C@@H]5CO)O[C@@H]4CO)O[C@@H]3CO` [γ-cyclodextrin], the “maximum solubility in aqueous hydrochloric acid solution of pH 1.2” value (“maximum solubility” below) ([1]; pH 1.2) was “about 20%”.
In the case of `OC[C@H]1O[C@@H]2O[C@H]3[C@H](O)[C@@H](O)[C@@H](O[C@H]4[C@H](O)[C@@H](O)[C@@H](O[C@H]5[C@H](O)[C@@H](O)[C@@H](O[C@H]6[C@H](O)[C@@H](O)[C@@H](O[C@H]7[C@H](O)[C@@H](O)[C@@H](O[C@H]8[C@H](O)[C@@H](O)[C@@H](O[C@H]1[C@H](O)[C@H]2O)O[C@@H]8CO)O[C@@H]7CO)O[C@@H]6CO)O[C@@H]5CO)O[C@@H]4CO)O[C@@H]3CO` [β-cyclodextrin], the “maximum solubility” value ([1]; pH 1.2) was “about 1%”.
With `OC[C@H]1O[C@@H]2O[C@H]3[C@H](O)[C@@H](O)[C@@H](O[C@H]4[C@H](O)[C@@H](O)[C@@H](O[C@H]5[C@H](O)[C@@H](O)[C@@H](O[C@H]6[C@H](O)[C@@H](O)[C@@H](O[C@H]7[C@H](O)[C@@H](O)[C@@H](O[C@H]1[C@H](O)[C@H]2O)O[C@@H]7CO)O[C@@H]6CO)O[C@@H]5CO)O[C@@H]4CO)O[C@@H]3CO` [α-cyclodextrin] the “maximum solubility” value ([1]; % (w/v), 10 mL) was “about 8%”.
In the case of `O=C(Cc1ccc(-c2ccc(N3CCOCC3)cc2)cn1)NCc1cccc(F)c1.O=S(=O)(O)c1ccccc1` [KX2-361.benzene sulfonate], the “Solution phenomenon when pH is adjusted to 4” value ([1]; API 0.5 mg/ml in 20% γ-CD (174:1)) was “turbid” and the “concentration after filtering, calibrated with HPLC” value [2] was 20660 µg/mL.

Reference: patent US11071737B2, “Drug inclusion complex, preparation thereof, and preparation method thereof” (priority 2015, dated 2021)
